This is an account of results in PMC11289891, “Selection and characterization of a peptide-based complement modulator targeting C1 of the innate immune system” (RSC Chemical Biology, 2024).

One test deals with T1, C1q (Homo sapiens, UniProt P02745+P02746+P02747).
T1 construct: tissue Complement Technology, Inc; host or cells: normal human serum (pooled), 1% in RPMI medium
The test is described as follows: ELISA for complement activation: C1q recruitment from human serum by immobilised peptide. The settings on record: for EC50: 1% human serum in RPMI, four-parameter fit. The format is binding. The method, then:
Maxisorb Nunc Immunoplates (Thermofisher Scientific, Massachusetts, USA) were coated with streptavidin (Thermofisher Scientific) at 10 μg mL^−1 in 0.1 M Na2CO3, 0.1 M NaHCO3 (coating buffer), pH 9.6 at 50 μL per well and allowed to incubate either at room temperature overnight, or 37 °C for 1 hour. Plates were washed with PBS with 0.05% tween-20 three times. For each following step, samples were incubated at 37 °C for 1 hour and subsequently washed with the PBS-T solution, we denote this as incubation and wash in the latter parts of the text. After streptavidin binding, wells were blocked with 100 μL of 0.1 M spermidine (Thermofisher Scientific) in distilled water incubated and washed. Then peptides were incubated in 50 μL PBS (as with all the following steps) with 0.05% Tween-20 (PBS-T) to create a peptide presenting surface and incubated and washed. In all activation assays, peptides are modified with a biotin to achieve binding to streptavidin. Note that in certain instances the peptides are initially modified with an azide. In such conditions a biotin-PEG4-DBCO (Jena Bioscience GmbH, Germany) was co-incubated with the peptides at 25 mol% excess of biotin linker to create a biotin modified peptide. This conjugation reaction took place in the plate. Hereafter the wells were incubated with 1% normal human serum (NHS) (Complement Technology, Inc., Texas, USA) in RPMI medium (Roswell Park Memorial Institute 1640 medium), then incubated and washed. Following these steps, complement components C1q or C5b-9 were detected. Primary Rabbit anti-C1q or Mouse anti C5b-9 (Dako, Denmark) was added to PBS, 0.05% Tween-20, 0.1% BSA (PBS-BT) in 1 : 2000 and 1 : 333 dilution, respectively, then incubated and washed. Next, goat anti-rabbit and anti-mouse antibodies (Dako, Denmark) modified with horseradish peroxidase (HRP) were diluted 1 : 5000 in PBS-T and added to the plates, then incubated and washed. To detect the HRP on the secondary antibody 2.5 mg mL^−1 ABTS (2′-azino-bis(3-ethylbenzothiazoline-6-sulfonic acid)) was added in citric acid buffer (0.15 M, pH 4.2) (ABTS buffer) containing 0.15 (v/v%) H2O2 was used and samples were incubated at room temperature for 30 minutes. Absorption measurements at 415 nm were performed on a CLARIOstar microplate reader (BMG Labtech, Offenburg, Germany).
(ELISA stands for enzyme-linked immunosorbent assay.)

Test [1] deals with C1q binding to pooled IgG. The test is described as follows: Competition ELISA on pooled human IgG, C1q detected. To be noted: peptide incubated with 1% human serum, pooled IgG-coated plate, two technical replicates. How it is done: (§1) Materials, including buffers and blocking agent, were the same as for the activation assay, unless stated otherwise. Incubation and wash steps between added new components was kept identical to the section “Enzyme-linked immunosorbent assay (ELISA) for complement activation” above. To determine the competition with pooled human IgG (Sigma-Aldrich, USA), Maxisorb plates were coated with 10 μg mL^−1 of IgG pooled from human serum, incubated, washed and blocked with spermidine. Peptides were incubated with 1% normal human serum (pooled, Complement Technology) for at least 30 minutes before adding to the IgG coated plates. DMSO controls and no serum controls were added. Human serum with and without peptides was added to the plates and subsequent complement inhibition was determined by detecting the presence of C1q or C5b-9. Data shown in the graphs is normalized to the maximum signal of the DMSO control and the minimal signal of the no serum control. Absorption measurements at 415 were performed on a CLARIOstar microplate reader (BMG Labtech, Offenburg, Germany).

Test [2] has as its system C5b-9 deposition by pooled IgG. The test is described as follows: Competition ELISA on pooled human IgG, C5b-9 detected. Format: biochemical. How it is done:
as §1

Read-outs that look alike come from different tables or passages of the source. Positions of bridges follow the written chain, without caps; N, C: chain ends. Non-standard residues stand in square brackets, D forms with d. Residues, ends and D or L forms follow the SMILES beside them. *: point of attachment. Biotin = O=C1N[C@H]2[C@H](CS[C@H]2CCCCC(=O)*)N1; Lys(N3) = [N-]=[N+]=NCCCC[C@H](N)C(=O)O

T1 sequence (P02745 23-245): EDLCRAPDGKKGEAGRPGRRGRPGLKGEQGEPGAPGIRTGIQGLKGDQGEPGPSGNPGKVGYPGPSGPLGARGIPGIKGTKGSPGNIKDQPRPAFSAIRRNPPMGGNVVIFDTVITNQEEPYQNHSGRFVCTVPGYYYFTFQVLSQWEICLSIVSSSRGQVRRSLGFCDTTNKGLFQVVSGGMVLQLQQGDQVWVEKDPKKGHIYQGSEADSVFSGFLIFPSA
T1 sequence (P02746 28-253): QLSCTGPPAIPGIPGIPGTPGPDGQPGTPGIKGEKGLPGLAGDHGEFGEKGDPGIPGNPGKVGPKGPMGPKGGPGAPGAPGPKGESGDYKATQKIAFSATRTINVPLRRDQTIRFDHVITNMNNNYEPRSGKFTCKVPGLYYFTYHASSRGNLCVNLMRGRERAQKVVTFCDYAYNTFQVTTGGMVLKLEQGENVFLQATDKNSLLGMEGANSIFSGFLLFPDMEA
T1 sequence (P02747 29-245): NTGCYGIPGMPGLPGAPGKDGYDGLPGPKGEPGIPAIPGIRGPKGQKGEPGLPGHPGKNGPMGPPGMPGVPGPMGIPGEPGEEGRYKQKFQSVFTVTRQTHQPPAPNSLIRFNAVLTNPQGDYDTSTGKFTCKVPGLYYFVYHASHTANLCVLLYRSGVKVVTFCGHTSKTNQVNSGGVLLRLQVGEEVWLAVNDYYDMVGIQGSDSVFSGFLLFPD
T1 sequence (P00736 18-705 partner): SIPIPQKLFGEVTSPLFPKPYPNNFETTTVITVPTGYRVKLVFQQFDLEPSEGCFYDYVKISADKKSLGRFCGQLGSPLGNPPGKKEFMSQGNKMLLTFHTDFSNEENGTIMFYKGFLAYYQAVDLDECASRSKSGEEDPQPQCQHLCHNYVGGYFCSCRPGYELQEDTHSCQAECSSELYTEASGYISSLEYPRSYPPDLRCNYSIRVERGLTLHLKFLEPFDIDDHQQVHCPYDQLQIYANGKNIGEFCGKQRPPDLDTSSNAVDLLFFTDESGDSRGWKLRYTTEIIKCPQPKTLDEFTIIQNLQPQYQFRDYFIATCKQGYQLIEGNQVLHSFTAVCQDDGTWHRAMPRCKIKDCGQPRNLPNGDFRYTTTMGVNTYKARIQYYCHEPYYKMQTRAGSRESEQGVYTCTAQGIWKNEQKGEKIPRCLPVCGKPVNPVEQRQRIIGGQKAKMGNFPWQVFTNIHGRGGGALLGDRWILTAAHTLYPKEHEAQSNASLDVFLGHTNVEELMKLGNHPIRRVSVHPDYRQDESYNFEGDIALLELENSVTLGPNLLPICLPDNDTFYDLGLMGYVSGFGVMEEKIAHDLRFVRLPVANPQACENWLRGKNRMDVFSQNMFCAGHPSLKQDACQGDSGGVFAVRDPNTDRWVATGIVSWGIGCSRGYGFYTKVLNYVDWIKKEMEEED
T1 sequence (P09871 16-688 partner): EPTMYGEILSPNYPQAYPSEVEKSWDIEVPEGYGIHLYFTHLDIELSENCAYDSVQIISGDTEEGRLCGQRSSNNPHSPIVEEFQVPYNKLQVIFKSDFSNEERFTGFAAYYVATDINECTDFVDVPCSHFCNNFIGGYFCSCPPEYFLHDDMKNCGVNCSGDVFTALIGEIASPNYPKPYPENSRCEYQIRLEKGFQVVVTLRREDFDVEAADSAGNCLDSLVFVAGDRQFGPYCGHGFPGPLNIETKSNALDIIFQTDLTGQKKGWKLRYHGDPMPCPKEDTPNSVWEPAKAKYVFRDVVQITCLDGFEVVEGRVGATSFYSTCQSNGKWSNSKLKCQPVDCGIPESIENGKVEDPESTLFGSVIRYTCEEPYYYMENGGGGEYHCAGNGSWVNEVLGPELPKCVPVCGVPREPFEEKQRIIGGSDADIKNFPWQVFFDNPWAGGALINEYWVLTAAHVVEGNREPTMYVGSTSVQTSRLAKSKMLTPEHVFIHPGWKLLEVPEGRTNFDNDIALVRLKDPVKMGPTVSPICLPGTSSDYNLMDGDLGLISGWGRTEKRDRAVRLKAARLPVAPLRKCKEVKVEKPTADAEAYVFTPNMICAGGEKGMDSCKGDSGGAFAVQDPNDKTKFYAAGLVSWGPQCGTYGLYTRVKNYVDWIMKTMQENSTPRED

Consider `CC[C@H](C)[C@@H]1NC(=O)[C@H](Cc2ccccc2)NC(=O)[C@H](CCC(N)=O)NC(=O)[C@H](CC(C)C)NC(=O)[C@H]([C@@H](C)O)NC(=O)[C@H](Cc2ccccc2)NC(=O)[C@@H]2CCCN2C(=O)[C@H](CC(=O)O)NC(=O)[C@@H]2CCCN2C(=O)[C@H](Cc2ccc(O)cc2)NC(=O)[C@H](Cc2ccccc2)NC(=O)[C@H]([C@@H](C)O)NC(=O)[C@H](C(C)C)NC(=O)[C@H]([C@@H](C)O)NC(=O)[C@H](Cc2ccc(O)cc2)NC(=O)CSC[C@@H](C(=O)NCC(=O)N[C@@H](CO)C(=O)N[C@@H](CCCCN=[N+]=[N-])C(=O)NCC(=O)O)NC(=O)[C@H](C)NC1=O` [cL3-Az] ({CH2CO}-YTVTFYPDPFTLQFIACGS[Lys(N3)]G-OH; thioether N-17), for which the EC50 (commonly the concentration needed to bring the measured effect to its halfway point) at C1q (cL3-Az conjugated to biotin-DBCO linker on streptavidin plate, 1 hour 37 °C, single technical replicate, CI 5.2-7.4, R2 0.99, read-out: EC50 of C1q recruitment, Fig. S4) was determined as 6.2 µM. The “EC50 of C1 recruitment compared with the biotinylated variant” value at C1q (cL3-Az via biotin-DBCO linker on streptavidin plate, 1% human serum) is given as “comparable to the biotinylated variant”.
In the case of `CC[C@H](C)[C@@H]1NC(=O)[C@H](Cc2ccccc2)NC(=O)[C@H](CCC(N)=O)NC(=O)[C@H](CC(C)C)NC(=O)[C@H]([C@@H](C)O)NC(=O)[C@H](Cc2ccccc2)NC(=O)[C@@H]2CCCN2C(=O)[C@H](CC(=O)O)NC(=O)[C@@H]2CCCN2C(=O)[C@H](Cc2ccc(O)cc2)NC(=O)[C@H](Cc2ccccc2)NC(=O)[C@H]([C@@H](C)O)NC(=O)[C@H](C(C)C)NC(=O)[C@H]([C@@H](C)O)NC(=O)[C@H](Cc2ccc(O)cc2)NC(=O)CSC[C@@H](C(=O)NCC(=O)N[C@@H](CO)C(=O)N[C@@H](CCCCNC(=O)CCCC[C@@H]2SC[C@@H]3NC(=O)N[C@@H]32)C(=O)NCC(=O)O)NC(=O)[C@H](C)NC1=O` [cL3-Bt] ({CH2CO}-YTVTFYPDPFTLQFIACGSK(Biotin)G-OH; thioether N-17), the EC50 stood at 6.2 µM at C1q (cL3-Bt titrated on streptavidin plate, technical duplicate on one plate (data of Fig. 3a), CI ND, R2 0.99, read-out: EC50 of C1q recruitment, Fig. S2 graph on the right); 8.2 µM on C1q (cL3-Bt titrated on streptavidin plate, technical duplicate on one plate, CI 7.4-9.1, R2 0.99, read-out: EC50 of C1q recruitment, Fig. S2 graph in the middle); 2.68 µM on C1q (cL3-Bt titrated on streptavidin plate, technical duplicate on one plate, CI ND, R2 0.98, read-out: EC50 of C1q recruitment, Fig. S2 graph on the left).
In the case of `CC[C@H](C)[C@@H]1NC(=O)[C@H](Cc2ccccc2)NC(=O)[C@H](CCC(N)=O)NC(=O)[C@H](CC(C)C)NC(=O)[C@H]([C@@H](C)O)NC(=O)[C@H](Cc2ccccc2)NC(=O)[C@@H]2CCCN2C(=O)[C@H](CC(=O)O)NC(=O)[C@@H]2CCCN2C(=O)[C@H](Cc2ccc(O)cc2)NC(=O)[C@H](Cc2ccccc2)NC(=O)[C@H]([C@@H](C)O)NC(=O)[C@H](C(C)C)NC(=O)[C@H]([C@@H](C)O)NC(=O)[C@@H](Cc2ccc(O)cc2)NC(=O)CSC[C@@H](C(=O)NCC(=O)N[C@@H](CO)C(=O)N[C@@H](CCCCNC(=O)CCCC[C@@H]2SC[C@@H]3NC(=O)N[C@@H]32)C(=O)NCC(=O)O)NC(=O)[C@H](C)NC1=O` [inv-cL3] ({CH2CO}-[dY]TVTFYPDPFTLQFIACGSK(Biotin)G-OH; thioether N-17; C-terminus assumed), in test [1], the “Inhibition of C1q binding to pooled IgG” value is on record as “minor inhibition of C1q binding to pooled IgG at high concentrations”. Besides, in test [2] (data of Fig. 6b, four-parameter fit, CI 1.01-2.13, R2 0.94, read-out: IC50, competition with IgG, Fig. S18 fit), the IC50 (as a rule, the midpoint of a concentration-inhibition curve) was 1.5 µM. Moreover, the “Inhibition of C5b-9 deposition by pooled IgG (qualitative, rank)” value in test [2] (peptide incubated with 1% human serum, pooled IgG-coated plate, two technical replicates) is given as “significantly worse than full-length cL3”.
